In patent US20170027896A1, “METHODS AND COMPOSITIONS FOR THE TREATMENT OF VASCULAR MALFORMATION” (IFOM - FONDAZIONE ISTITUTO FIRC DI ONCOLOGIA MOLECOLARE, priority 2014, published 2017):
“Also recorded” adds a separate entry of the source.

Legend:
Type in all cases: cell-based, mouse
[1] = test system: CCM3-knockout brain endothelial cells in primary culture; assay: Immunostaining of CCM3-knockout brain endothelial cells in primary culture; details: 48 h
From the text: Endothelial cells from the CCM3-flox/flox mice (8-10 weeks old) were isolated from the brain as previously described^13. Recombination of the floxed CCM3 gene was induced by treating the cells at culture day 1 with the AdenoCre viral vector, as previously described^59. The control endothelial cells were an aliquot of the same endothelial cell preparation treated with AdenoGFP, instead of AdenoCre. The cells were then maintained in culture for up to a further 7 days before analysis, as described in the main text. Drug treatments were for 48 h before the processing of the cells. Drugs were added to confluent cells for 48 h before the indicated assays. The final concentrations used were: […] (all from Sigma-Aldrich). As all of these were dissolved in DMSO, control treatment (vehicle) was 0.1% DMSO final concentration, as for drug treatment. Cells cultured in vitro were fixed and stained as described previously^46. The following antibodies were used: […] (hamster; MAB1398Z, Millipore); anti-b-galactosidase (chicken; ab9361, Abcam); anti-VE-cadherin (rat monoclonal; 550548, BD Biosciences); anti-VE-cadherin (goat; sc-6458, Santa Cruz); anti-active-b-catenin (mouse monoclonal clone 8E7) dephosphorylated on […] and Thr41, Millipore); anti-total-b-catenin (mouse monoclonal; […] AF3158, R&D); anti-CD44 (rat; 553131, BD Biosciences); anti-ID1 (rabbit; sc-488, Santa Cruz); anti-aSMA (mouse monoclonal; […], Sigma); anti-GFP (rabbit; A-6455, Invitrogen); anti-podocalyxin (goat; AF1556, R&D); anti-phospho-histone H3 (rabbit; ab51776, Millipore); anti-CCM3 (rabbit; Eurogentec); anti-p-Smad1 (rabbit; 9516, Cell Signaling); anti-endomucin (rabbit; sc-65495, Santa Cruz); anti-α-tubulin (mouse monoclonal; T9026, Sigma).

[2] = test system: co-immunoprecipitation complex of b-catenin and VE-cadherin; assay: Co-immunoprecipitation and Western blotting of b-catenin and VE-cadherin in CCM3-knockout endothelial line; details: association reduced by 35% in vehicle-KO
Experimental: Drugs were added to confluent cells for 48 h before the indicated assays. The final concentrations used were: […] (all from Sigma-Aldrich). As all of these were dissolved in DMSO, control treatment (vehicle) was 0.1% DMSO final concentration, as for drug treatment. Standard procedures were used to extract and analyze the protein content by Western blotting and immunoprecipitation^46. Nuclear fractionation was as described previously^62.

[3] = test system: b-catenin/Tcf4-dependent transcription; assay: Top/Fop-Flash assay in CCM3-knockout endothelial line; details: 48 h
Experimental: Drugs were added to confluent cells for 48 h before the indicated assays. The final concentrations used were: […] (all from Sigma-Aldrich). As all of these were dissolved in DMSO, control treatment (vehicle) was 0.1% DMSO final concentration, as for drug treatment. […] This was transfected into the endothelial cells […] using Lipofectamine 2000, according to the manufacturer instructions (Invitrogen). The pCMV plasmid for constitutive expression of b-gal was co-transfected ([…]), for normalization of luciferase expression over transfection efficiency. […] This was co-transfected with the b-gal plasmid, for normalization, as above. The Dual-Light Reporter Gene assay system (Applied Biosystems) for the combined detection of firefly luciferase and b-gal was used. The cell extraction and detection of chemiluminescence (Glomax 96 microplate luminometer; Promega) was carried out according to the manufacture instructions.

With `CSc1ccc(/C=C2/C(C)=C(CC(=O)O)c3cc(F)ccc32)cc1` [sulindac sulfide, (Z)-5-Fluoro-2-methyl-1-[4-(methylthio)benzylidene]indene-3-acetic acid] the “VE-cadherin at cell-cell contacts” value [1] was “more localized to cell-cell contacts”, the “nuclear localization of active b-catenin” value [1] was “strongly inhibited” and the “overexpression of Klf4 and S100a4 proteins” value [1] was “inhibition; also recorded: inhibited”. For the same compound, the “association between b-catenin and VE-cadherin (b-catenin/VE-cadherin ratio)” value [2] was “restored to the level observed in the wild-type cells” and the “b-catenin transcriptional activity in Top/Fop Flash reporter assay” value [3] was “inhibited; also recorded: reduced”.
